Reference: PubChem BioAssay (NCI)
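Briefly, cells in 96-well plates were exposed to five compound concentrations for 48 h, and endpoints were estimated by linear interpolation. Definition used: TGI = concentration required for complete inhibition of growth.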

Columns and labels:
Test in all cases: inhibition of tumour cell growth, NCI panel, 48 h
[1] = tested on: SK-MEL-2 melanoma
[2] = tested on: HCC-2998 colon
[3] = tested on: SF-295 CNS
[4] = tested on: RPMI-8226 leukemia
[5] = tested on: HCT-116 colon
[6] = tested on: KM12 colon
[7] = tested on: DLD-1 colon
[8] = tested on: LOX IMVI melanoma
[9] = tested on: UACC-257 melanoma
[10] = tested on: OVCAR-8 ovarian
[11] = tested on: M19-MEL melanoma
[12] = tested on: RXF 393 renal
[13] = tested on: SF-268 CNS
[14] = tested on: ACHN renal
[15] = tested on: XF 498 CNS
[16] = tested on: SK-MEL-28 melanoma
[17] = tested on: SNB-19 CNS
[18] = tested on: NCI-H23 lung
[19] = tested on: HCT-15 colon
[20] = tested on: DMS 114 small cell lung
[21] = tested on: TK-10 renal
[22] = tested on: UACC-62 melanoma
[23] = tested on: SF-539 CNS
[24] = tested on: HOP-62 NSCLC
[25] = tested on: U251 CNS
[26] = tested on: EKVX NSCLC
[27] = tested on: SNB-75 CNS
[28] = tested on: M14 melanoma
[29] = tested on: LXFL 529 NSCLC
[30] = tested on: HOP-92 NSCLC
[31] = tested on: HT29 colon
[32] = tested on: KM20L2 colon
[33] = tested on: 786-0 renal
[34] = tested on: SNB-78 CNS
[35] = tested on: A549 NSCLC
[36] = tested on: HOP-18 NSCLC
[37] = tested on: HL-60(TB) leukemia
[38] = tested on: NCI-H460 lung
[39] = tested on: OVCAR-3 ovarian
[40] = tested on: SR leukemia
[41] = tested on: UO-31 renal
[42] = tested on: SW-620 colon
[43] = tested on: IGROV1 ovarian
[44] = tested on: NCI-H522 lung
[45] = tested on: SN12C renal
[46] = tested on: DMS 273 small cell lung
[47] = tested on: OVCAR-4 ovarian
[48] = tested on: K-562 leukemia
[49] = tested on: NCI-H226 lung
[50] = tested on: MOLT-4 leukemia
[51] = tested on: COLO 205 colon
[52] = tested on: SK-OV-3 ovarian
[53] = tested on: CCRF-CEM leukemia
[54] = tested on: MALME-3M melanoma
[55] = tested on: A498 renal
[56] = tested on: CAKI-1 renal
[57] = tested on: SK-MEL-5 melanoma
[58] = tested on: MCF7 breast
[59] = tested on: DU-145 prostate
[60] = tested on: HS 578T breast
[61] = tested on: BT-549 breast
[62] = tested on: PC-3 prostate
[63] = tested on: MDA-MB-435
[64] = tested on: T-47D breast
[65] = tested on: MDA-N
[66] = tested on: MDA-MB-231 breast
[67] = tested on: NCI/ADR-RES ovarian
[68] = tested on: OVCAR-5 ovarian

Measured: TGI

Cc1c(/C=N/NC(=O)c2ccccc2O)c(=O)n(-c2ccccc2)n1C
not listed: [55] | [56] | [57] | [58] | [59] | [60] | [61] | [62] | [63] | [64] | [65] | [66] | [67] | [68]
> 100 µM: all other assays above

CNC(C)(C)Cc1ccc(Cl)cc1
not listed: [17] | [19] | [30] | [34] | [36] | [37] | [40] | [41] | [46] | [49] | [58] | [59] | [60] | [61] | [62] | [63] | [64] | [65] | [66] | [67] | [68]
> 100 µM: all other assays above

C=CCOC(=O)N1c2ccc(O[Si](C)(C)C(C)(C)C)cc2[C@@]23O[C@@]24[C@@H]1C#C/C=C\C#C[C@]3(O)C(OC)(OC)C[C@@H]4C
> 42 µM: [22]
> 89.1 µM: [60]
> 75.9 µM: [27]
> 42.9 µM: [50]
5.48 µM: [55]
> 92.4 µM: [58]
not listed: [7] | [11] | [15] | [20] | [29] | [32] | [34] | [36] | [46]
> 100 µM: all other assays above

O=C(O)CCNS(=O)(=O)c1ccc(NC(=O)c2ccccc2)cc1
not listed: [5] | [20] | [24] | [34] | [40] | [49] | [58] | [59] | [60] | [61] | [62] | [63] | [64] | [65] | [66] | [67]
> 100 µM: all other assays above
